Test results reported in US7803378B2, “Antigen imitating extracellular areas of membrane proteins of type III produced from intracellular pathogenic micro-organisms, derived conformational antibodies and the use thereof” (priority 2003, dated 2010).

Key:
[1] = test system: extracellular domains of the LMP1 protein; assay: Immunogenic potency of LMP1 antigens: serum antibodies by ELISA after immunization; assay type: in vivo, EBV; settings: mice immunized with LMP1-derived peptide coupled to KLH or lipid
Procedure: (§1) The LMP1-derived peptides containing only one exogenous cystein (SEQ ID Nos 10, 11, 12, 15, 16) were individually coupled to activated KLH (Imject maleimide-activated KLH®, Perbio) according to the supplier's protocol. Mice (4 animals per group) were injected subcutaneously in the flank, with an emulsion of peptide (50 μg in 0.1 ml H20) and of complete Freund's adjuvant (0.1 ml). On days 21, 42 and 62 following the first injection (D0), the animals are given a boost injection, by the same route, with the same amount of antigen but in incomplete Freund's adjuvant. […]
(§2) Blood samples are taken, by retro-orbital puncture, from the immunized mice, and the sera are then recovered and frozen at −20° C. in 20-μl fractions. […] The reaction is stopped by adding 4N sulfuric acid, and the absorption at 492 nm is measured using an automatic microplate reader (Dynatech).
Antibodies directed against the extracellular domains of the EBV LMP1 protein were prepared by immunization of mice with the peptides SEQ ID Nos 10 and 11 coupled to KLH, or else with the peptide SEQ ID No. 13 coupled to cholesterol, as described in example 1. The kinetics of appearance of the serum antibodies directed against the extracellular domains of the LMP1 protein were analyzed by ELISA, as described in example 1.

[2] = test system: extracellular domains of the LMP2A protein; assay: Immunogenic potency of the LMP2A antigens in mice and rats (ELISA); assay type: in vivo, EBV; settings: comparison of LMP2A peptides SEQ ID Nos 15, 16, 17
Procedure: as §1, §2
Antibodies directed against the extracellular domains of the LMP2A proteins were prepared by immunization of batches of 4 BALB/c mice or of batches of 3 LOU/M rats with the peptides SEQ ID Nos 15, 16 and 17 coupled to activated KLH as described in example 1. The response in terms of antibodies directed against the extracellular domains of the LMP2A protein was analyzed by ELISA, as described in example 1.

Substance | Immunogenic Potency [1] | humoral response [2]
SEQ ID No: 14: LMP1-(ED1 + ED2 + ED3) with linking residues between domains (MSDWTGGALCLWNLHGQALCLYLQQNWWT; Epstein Barr Virus) | +(IgM) | 
TWRIEDPPFNSLCVDAVLQLSPL [SEQ ID No. 16] |  | best humoral response
